In patent US9393316B2, “Cancer targeting peptides for enhancing anti-cancer drug delivery and therapeutic efficiencies” (priority 2014, dated 2016):

Experiments:
[1] = test system: COLO205; assay: Flow cytometry surface binding of phage clones; design: species or system human
Method: (§1) Cells were grown to 70-80% confluence and were harvested with 10 mM EDTA in PBS. Peripheral blood mononuclear cells were prepared by using Ficoll-Paque Plus density gradient separation. After washing and suspending the cells with FACS buffer (PBS containing 1% fetal bovine serum), the cells were incubated for 1 hr at 4° C. with 5×10^9, 1×10^9 cfu individual phage clones or control phage, respectively. After washing twice with FACS buffer, cells were incubated with mouse anti-M13 monoclonal antibody (GE Healthcare) at 1:2000 dilution for 1 hr followed by 30 min with phycoerythrin (PE)-conjugated goat anti-mouse secondary antibody (Jackson ImmunoResearch) at 1:250 dilution at 4° C. The emission fluorescence signals were measured using FACSCantoll (Becton Dickinson) and were analyzed by FlowJo software.

[2] = test system: HCT116 cells; assay: Flow cytometry surface binding of phage clones; design: species or system human
Method: as §1

[3] = test system: HT29; assay: Flow cytometry surface binding of phage clones; design: species or system human
Method: as §1

[4] = test system: LS174T; assay: Flow cytometry surface binding of phage clones; design: species or system human
Method: as §1

[5] = test system: SW620; assay: Flow cytometry surface binding of phage clones; design: species or system human
Method: as §1

[6] = test system: peripheral blood mononuclear cells (PBMC); assay: Flow cytometry binding of phage clones to normal cells; details: human PBMC
Method: as §1

[7] = test system: HCT116 xenografts; assay: In vivo tumor homing, phage titer in tumor and organs; design: species or system mice; details: 2×10^11 pfu i.v., PBS perfusion; vs brain, lungs, heart
Method: Non-obese diabetic-severe combined immunodeficiency (NOD/SCID) mice were injected subcutaneously (s.c.) into the dorsolateral flank with 5×10^6 HCT116 cells. When the xenograft tumor size reached 300±50 mm^3, the mice were injected intravascularly (i.v.) with 2×10^11 pfu of the targeting phage or control phage M13KO7. Seven min after injection, the mice were sacrificed and perfused through the heart with 50 mL of PBS to wash unbound phages. After perfusion, xenograft tumor and mouse organs were taken out, washed three times with cold PBS, and cut into pans, with some of them homogenized. The phages bound to each tissue sample were recovered by log-phase Escherichia coli ER2738 culture and were titered on LB/IPTG/X-Gal agar plates. In peptide competitive inhibition experiments, 2×10^9 pfu of phage was co-injected with 100 μg of corresponding peptide or an unrelated control peptide.
To investigate the targeting ability of the selected phage clones in vivo, mice bearing HCT116 xenografts (300 mm^3) were injected with 2×10^11 pfu of either the selected phages or control phage through the tail vein. Phages were circulated and then were perfused with PBS buffer to wash out non-specific binders in circulation. After perfusion, we recovered and determined the […] of phage in tumor masses and normal organs.

[8] = test system: HCT116 xenografts; assay: Immunohistochemical localization of phages in xenograft tumor and organs; type: in vivo, mice; details: tumor vs brain, heart, lungs, colon
Method: The tissue samples from in vivo phage homing experiment were embedded in frozen blocks. To evaluate the phage distribution in each tissue by immunohistochemistry, the frozen specimens were cut to 8-μm-thick sections and were collected on coated slides. The slides were washed with cold PBS to remove OCT and were fixed with 4% paraformaldehyde for 10 min at RT. To block endogenous peroxidase activity, the slides were soaked with 3% hydrogen peroxide in methanol for 30 min at RT. The nonspecific antibody binding sites were blocked by immersing the section with 1% BSA in PBS for 30 min at RT. The tissue sections were incubated with mouse anti-M13 monoclonal antibody at 1:250 dilution for 1 hr, followed by adding Super Enhancer reagent (Super SENSITIVE™ Polymer HRP Detection System/DAB, BioGenex) for 20 min and Poly-HRP reagent (BioGenex) for 30 min. After washing, the sections were developed with DAB (3,3′-diaminobenzidine) Chromogen (BioGenex) supplemented with Stable DAB buffer. The reaction was stopped by adding PBS. For nuclei staining, the slides were immersed in hematoxylin for 5 min, and were then mounted with mounting solution to terminate the reaction. The images of sections were taken and analyzed using automated acquisition system (TissueGnostics).

[9] = test system: 1112SK; assay: Cellular ELISA of phage clones; type: binding, human
Method: (§2) The selected phages were further identified by ELISA screening. 1×10^4 cells were seeded into each well of 96-well ELISA plates (Falcon, Calif., USA) overnight and were fixed with 2% paraformaldehyde or methanol/acetone (1:1) for 10 min at RT. The plates were washed twice with PBS and were blocked with 1% BSA in PBS (w/v) for 30 min at RT. Then individual phage clones were added and incubated for 1 hr at RT. Following washing three times with PBS, the plates were incubated with horseradish peroxidase (HRP)-conjugated mouse anti-M13 phage antibody (GE Healthcare) at 1:2000 dilution for 1 hr at RT. The plates were washed three times with PBS again, and were subsequently incubated with the peroxidase substrate o-phenylenediamine dihydrochloride (OPD; Sigma) plus H2O2. The reaction was terminated by 3 N HCl, and the absorbance was measured using microplate reader (Model 680, BioRad) at 490 nm. To evaluate the binding activities of the three selected phage clones to various human cancer cell lines, cellular ELISA was performed to detect sixteen types of human cancer cell lines, including A498, HTB-10, B16-F10, SKOV3, PC-3, U2OS, 1112SK, […], SAS, H460, MIA Paca-2, HCT116, HUVAC, CL1-5, Mahlavu, and MDA-MB-231.

[10] = test system: H184; assay: Cellular ELISA of phage clones; type: binding, human
Method: as §2

[11] = test system: MDA-MB-231; assay: Cellular ELISA of phage clones; type: binding, human
Method: as §2

[12] = test system: SAS; assay: Cellular ELISA of phage clones; type: binding, human
Method: as §2

[13] = test system: SKOV3; assay: Cellular ELISA of phage clones; type: binding, human
Method: as §2

[14] = test system: U2OS; assay: Cellular ELISA of phage clones; type: binding, human
Method: as §2

[15] = test system: B16-F10; assay: Cellular ELISA of phage clones; type: binding, mouse
Method: as §2

[16] = target: T1, alpha-enolase (ENO1) (Homo sapiens, UniProt P06733); assay: Flow cytometry binding of HCT74 phage after ENO1 knockdown or overexpression
T1 construct: endogenous in cells; host or cells: HCT116
T1 sequence (P06733 whole entry): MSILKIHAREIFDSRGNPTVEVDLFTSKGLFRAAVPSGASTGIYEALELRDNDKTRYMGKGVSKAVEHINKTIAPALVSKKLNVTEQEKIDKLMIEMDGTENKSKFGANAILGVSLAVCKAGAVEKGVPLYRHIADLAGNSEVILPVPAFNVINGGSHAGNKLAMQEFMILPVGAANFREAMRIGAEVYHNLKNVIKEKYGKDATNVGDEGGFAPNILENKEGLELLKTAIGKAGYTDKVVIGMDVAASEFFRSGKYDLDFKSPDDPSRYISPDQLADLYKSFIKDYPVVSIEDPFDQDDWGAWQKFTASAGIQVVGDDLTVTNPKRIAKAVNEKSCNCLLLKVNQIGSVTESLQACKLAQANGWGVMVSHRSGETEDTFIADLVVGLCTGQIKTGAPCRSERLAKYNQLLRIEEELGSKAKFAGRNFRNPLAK
Description: To further confirm alpha-enolase was the target proteins of the pHCT74 peptide, correlation between the binding activity of HCT74 phage and ENO1 expression was examined. We established stable cell lines expressing shRNAs targeting ENO1 gene (FIG. 4E) and tested the binding activity of HCT74 phage by flow cytometry. The binding activity of HCT74 phage was reduced after ENO1 gene knockdown (FIG. 4F). Instead, after transient overexpression of ENO1 gene, the binding activity of HCT74 phage was increased (FIG. 4G). […] In addition, HCT74 phage specific binding to the alpha enolase protein was also confirmed by direct ELISA assay (FIG. 4H).

binding activity by FACS [1]: weak affinity
binding activity by FACS [3]: high binding affinity
binding activity by FACS [4]: moderate affinity
binding activity by FACS [5]: high binding affinity
binding by cellular ELISA [9]: highly specific binding
binding by cellular ELISA [10]: highly specific binding
binding by cellular ELISA [11]: highly specific binding
binding by cellular ELISA [12]: highly specific binding
binding by cellular ELISA [13]: highly specific binding
binding by cellular ELISA [14]: highly specific binding
binding by cellular ELISA [15]: highly specific binding
binding activity after ENO1 gene knockdown ([16]; HCT116 cells with shRNAs targeting ENO1): reduced
binding activity after transient overexpression of ENO1 gene ([16]; flow cytometry): increased
Sequence: SSMDIVLRAPLM [HCT74]
cell surface-binding activity by flow cytometry [2]: high binding affinity
binding activity to PBMC (normal cells) by FACS [6]: not to normal cells
phage accumulation in tumor mass vs normal organs (phage titer) [7]: significantly accumulated in the tumor mass
phage localization by immunostaining of tissue sections [8]: selectively localized in tumor tissues
phage localization by immunostaining of tissue sections ([8]; listed as HCT-74): strong accumulated in the tumor
